Like-named read-outs stand apart in the source and are kept apart here.
Key:
[1] = test system: intracellular arginase in murine M2-polarized BMDMs; experiment: Cell-based arginase inhibition assay in murine M2-polarized bone marrow-derived macrophages (urea in supernatant); parameters: species or system mouse; details: 24 h incubation, 5 mM L-arginine, read-out: IC50, intracellular activity towards arginase-expressing immune cells
Method: The intracellular activity of OATD-02 arginase inhibitor was determined using murine M2-polarized macrophages. Bone marrow cells were collected from femur bones of C57BL/6 male mice. The cells suspended in DMEM medium (ThermoFisher, Waltham, MA, USA) supplemented with 5% FBS and 50 ng/mL M-CSF (PeproTech, Rocky Hill, NJ, USA) were poured through a 40 µm cell strainer and seeded into Petri dishes at 1 × 10^6 cells/mL for 2 days (37 °C, 5% CO2). Next, nonadherent cells were removed and fresh medium was added (DMEM, 5% FCS, 50 ng/mL M-CSF). The next day, the cells were dissociated using the CellStripper Dissociation Reagent (Corning, New York, NY, USA) and resuspended in the fresh DMEM medium containing 5% FCS, 50 ng/mL M-CSF, 20 ng/mL TGF-ß, and 30 ng/mL IL-4 (Biomibo, Warszawa, Poland). The cells were seeded into 96-well plates (64 × 10^3 cells/100 µL/well). […] Following 24 h incubation (37 °C, 5% CO2), the generated urea was detected by mixing 50 µL of the supernatant with 75 µL of the developing reagent (as described in the above section). Normalized absorbance values (515 nm) were fitted to a four-parameter equation using GraphPad Prism and IC50 values were determined. […] Normalized absorbance values (515 nm) were fitted to a four-parameter equation using GraphPad Prism and IC50 values were determined. […]

[2] = test system: CT26 tumours; experiment: Syngeneic CT26 colorectal carcinoma model, monotherapy, with plasma/tumour bioanalytics; assay type: in vivo, mouse; details: for final TGI (tumour growth inhibition): CT26 in BALB/c mice, 100 mg/kg, PO, BID from day 1 post-inoculation
Method: CT26 and K562 in vivo experiments were conducted at Molecure SA. All experimental procedures were approved by the 1st Local Ethics Committee in Warsaw (Poland). For the syngeneic CT26 model, 7–8-week old BALB/c females (n = 9–18 per group, BALB/cAnNCrl, Charles River Laboratories) were injected subcutaneously in the right flank with 5 × 10^5 CT26 cells. […] Anti-PD-L1 antibody (InVivoPlus anti-mouse PD-L1, clone 10F.9G2, BioXCell, lot 615416D1) was injected intraperitoneally at 2.5 mg/kg on days: 8, 10, 12, 14 and 16 post tumour cells inoculation. Control groups received vehicle (saline) or isotype antibody (InVivoPlus rat IgG2b, anti-KLH, BioXCell, lot 629816D1). For the xenograft K562 model, 7–8 week-old athymic nude mice (n = 8–11 per group, Crl:NU(NCr)-Foxn1^nu, Charles River Laboratories) or NK cell-deficient Fox Chase SCID Beige mice (n = 10–12 per group, CB17.Cg-Prkdc^scidLyst^bg-J/Crl, Charles River Laboratories) were injected subcutaneously in the right flank with 1 × 10^7 K562 cells. […] Tumour volume measured by a digital calliper (width × length × depth × π/6) was recorded three times per week. Animals were euthanized when tumours were necrotized or volume exceeded 2000 mm^3. Renca in vivo efficacy study was performed at Crown Biosciences Inc. (Taicang, China). All experimental procedures on animals were approved by the Institutional Animal Care and Use Committee (IACUC) and conducted in accordance with the regulations of the Association for Assessment and Accreditation of Laboratory Animal Care (AAALAC). For the syngeneic Renca model, 6–7 week-old BALB/c females (n = 12 per group, Shanghai Lingchang Biotechnology, Shanghai, China) were injected subcutaneously in the right flank with 1 × 10^6 Renca cells. Tumour volumes (length × width^2 × 0.5) were measured twice per week. OATD-02 was dosed twice per day at 75 mg/kg by oral gavage. A dosing holiday was given to individuals with bodyweight loss exceeding 15% of the initial body weight and the treatment was resumed when the bodyweight loss recovered to less than 10%. Due to the cachexic nature of the Renca model, all animals were supplemented with DietGel to help maintain their body weight.
The concentrations of OATD-02, the reference ARGi or L-arginine were determined in plasma samples or tumour homogenates using liquid chromatography coupled with tandem mass spectrometry (LC-MS/MS). Sample preparation was based on protein precipitation using acetonitrile. The resulting supernatants were analysed using hydrophilic interaction liquid chromatography (HILIC) with subsequent MS detection based on optimised MRM transitions. Matrix-matched calibration and quality control samples were prepared for quantification of OATD-02 and the reference ARGi. Due to the endogenous character of L-arginine, a surrogate matrix was used for its detection.
All statistical analyses were performed using GraphPad Prism (ver. 9, GraphPad Software, Inc., San Diego, CA, USA). Data sets with normal distribution were described as means with SEM (standard error of the mean). Otherwise, the median value was shown and the U Mann–Whitney or the Kruskal–Wallis tests were applied for intergroup comparisons. Differences at p-value less than 0.05 were considered statistically significant. TGI (tumour growth inhibition) index was calculated by the formula: (1 − A/B) × 100%, where A is the tumour volume in the treated group and B is the volume in the control group. […]

[3] = test system: K562 tumours; experiment: K562 xenograft model in athymic nude mice; assay type: in vivo, mouse
Method: CT26 and K562 in vivo experiments were conducted at Molecure SA. All experimental procedures were approved by the 1st Local Ethics Committee in Warsaw (Poland). For the syngeneic CT26 model, 7–8-week old BALB/c females (n = 9–18 per group, BALB/cAnNCrl, Charles River Laboratories) were injected subcutaneously in the right flank with 5 × 10^5 CT26 cells. […] Anti-PD-L1 antibody (InVivoPlus anti-mouse PD-L1, clone 10F.9G2, BioXCell, lot 615416D1) was injected intraperitoneally at 2.5 mg/kg on days: 8, 10, 12, 14 and 16 post tumour cells inoculation. Control groups received vehicle (saline) or isotype antibody (InVivoPlus rat IgG2b, anti-KLH, BioXCell, lot 629816D1). For the xenograft K562 model, 7–8 week-old athymic nude mice (n = 8–11 per group, Crl:NU(NCr)-Foxn1^nu, Charles River Laboratories) or NK cell-deficient Fox Chase SCID Beige mice (n = 10–12 per group, CB17.Cg-Prkdc^scidLyst^bg-J/Crl, Charles River Laboratories) were injected subcutaneously in the right flank with 1 × 10^7 K562 cells. […] Tumour volume measured by a digital calliper (width × length × depth × π/6) was recorded three times per week. Animals were euthanized when tumours were necrotized or volume exceeded 2000 mm^3. Renca in vivo efficacy study was performed at Crown Biosciences Inc. (Taicang, China). […] Tumour volumes (length × width^2 × 0.5) were measured twice per week. […]

| Structure (SMILES) | IC50 [1] [µM] | fold change of endogenous plasma L-arginine ([2]; CT26-bearing mice, 100 mg/kg PO BID, 6 h after the last dosing) | final TGI (tumour growth inhibition) [2] [%] | fold change of L-arginine in tumour homogenates ([2]; CT26 tumours, 100 mg/kg PO BID, within the first 6 h post-dosing) | final TGI, K562 tumor volumes, athymic nude mice ([3]; 50 mg/kg PO BID from day 6, day 19 post-inoculation) [%] | IC50 ([1]; Mus musculus, BMDM) [µM] | oral bioavailability (plasma concentrations, compared between the two inhibitors) ([2]; CT26-bearing mice, 100 mg/kg PO BID, Figure 2B) | final TGI, K562 tumor volumes, athymic nude mice ([3]; 100 mg/kg PO BID (Figure 5 legend) from day 6, day 19 post-inoculation) [%] |
| --- | --- | --- | --- | --- | --- | --- | --- | --- |
| CN(C)C[C@@H]1CC[C@@H](CCB(O)O)C[C@]1(N)C(=O)O [OATD-02] | 1.1 | up to 6.7 fold | 48 | up to 6.9 fold | 49 |  |  |  |
| C[C@H](N)C(=O)N1C[C@H](CCCB(O)O)[C@](N)(C(=O)O)C1 [ref. ARGi, numidargistat, reference compound] |  |  | 28 |  |  | 56.2 | higher oral bioavailability | 14 |

From publication PMC9406419, “OATD-02 Validates the Benefits of Pharmacological Inhibition of Arginase 1 and 2 in Cancer” (Cancers, 2022)
